Measured values reported in patent US12435044B2, “Pyridazinone herbicides and pyridazinone intermediates used to prepare a herbicide” (FMC Corporation, priority 2018, dated 2025).

Key:
Format in all cases: in vivo
[1] = test system: palmer amaranth (AMAPA; Amaranthus palmeri); assay: Test G preemergence, mixtures of Cpd. No. 20 with (b15C1)
Source text: (§1) This test evaluated the effect of mixtures of Cpd. No. 20 with (b15C1) on several plant species. Seeds of plant species selected from corn (ZEAMD; Zea mays, cv. ‘Pioneer 1184’), soybean (GLXMA; Glycine max, cv. Pioneer 35T58), giant foxtail (SETFA; Setaria faberi), barnyardgrass (ECHCG; Echinochloa crus-galli), large crabgrass (DIGSA; Digitaria sanguinalis), palmer amaranth (AMAPA; Amaranthus palmeri), common waterhemp (AMATU; Amaranthus rudis), and common ragweed (AMBEL; Ambrosia artemisiifolia) were planted in pots containing Tama Silt Loam soil and treated preemergence with a directed soil spray using test chemicals formulated in a non-phytotoxic solvent mixture which included a surfactant.
Treated plants and untreated controls were maintained in a greenhouse for approximately 21 d, after which time all treated plants were compared to untreated controls and visually evaluated for injury. Plant response ratings, summarized in Table G, are based on a 0 to 100 scale where 0 is no effect and 100 is complete control. A dash (-) response means no test result. Test results are presented as a mean of 4 reps.

[2] = test system: giant foxtail (SETFA; Setaria faberi); assay: Test of Tables L1 to L3, postemergence, mixtures of Cpd. No. 20 with benoxacor, isoxadifen-ethyl, or cloquintocet-mexyl; conditions: for Plant response rating (0 to 100 scale) SETFA: approx. 14 d
Summary of the method: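 Postemergence spray of test chemical mixed with safener, in non-phytotoxic solvent with surfactant, onto potted plants 7–10 cm tall at one- to two-leaf stage. Kept in greenhouse ~14 d, then injury rated visually versus untreated controls on 0 (no effect)–100 (complete control) scale; mean of 4 reps.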

[3] = test system: corn (ZEAMD; Zea mays, cv. ‘Pioneer 1184’); assay: Test J pre-/postemergence, mixtures of Cpd. No. 20 with (b15C2)
Source text: as §1, with “(b15C2)” for “(b15C1)”, “faberi),” for “faberi), barnyardgrass (ECHCG; Echinochloa crus-galli), large crabgrass (DIGSA; Digitaria sanguinalis),”, “rudis), mare's tail (ERICA; Conyza canadensis),” for “rudis),”
(§2) At the same time, plants selected from these crop and weed species were planted in pots containing Redi-Earth® planting medium (Scotts Company, 14111 Scottslawn Road, Marysville, Ohio 43041) comprising spaghnum peat moss, vermiculite, wetting agent and starter nutrients and treated postemergence with test chemicals formulated in the same manner. Plants ranged in height from 2 to 10 cm and were in the one- to two-leaf stage for the postemergence treatment. Treated plants and untreated controls were maintained in a greenhouse for approximately 14-21 d, after which time all treated plants were compared to untreated controls and visually evaluated for injury. Plant response ratings, summarized in Tables J1 & J2, are based on a 0 to 100 scale where 0 is no effect and 100 is complete control. A dash (-) response means no test result. Test results are presented as a mean of 4 reps.

[4] = test system: common waterhemp (AMATU; Amaranthus rudis); assay: as above
Source text: as §1, with “(b15C2)” for “(b15C1)”, “faberi),” for “faberi), barnyardgrass (ECHCG; Echinochloa crus-galli), large crabgrass (DIGSA; Digitaria sanguinalis),”, “rudis), mare's tail (ERICA; Conyza canadensis),” for “rudis),”
as §2

[5] = test system: giant foxtail (SETFA; Setaria faberi); assay: as above
Source text: as §1, with “(b15C2)” for “(b15C1)”, “faberi),” for “faberi), barnyardgrass (ECHCG; Echinochloa crus-galli), large crabgrass (DIGSA; Digitaria sanguinalis),”, “rudis), mare's tail (ERICA; Conyza canadensis),” for “rudis),”
as §2

[6] = test system: mare's tail (ERICA; Conyza canadensis); assay: as above
Source text: as §1, with “(b15C2)” for “(b15C1)”, “faberi),” for “faberi), barnyardgrass (ECHCG; Echinochloa crus-galli), large crabgrass (DIGSA; Digitaria sanguinalis),”, “rudis), mare's tail (ERICA; Conyza canadensis),” for “rudis),”
as §2

[7] = test system: palmer amaranth (AMAPA; Amaranthus palmeri); assay: as above
Source text: as §1, with “(b15C2)” for “(b15C1)”, “faberi),” for “faberi), barnyardgrass (ECHCG; Echinochloa crus-galli), large crabgrass (DIGSA; Digitaria sanguinalis),”, “rudis), mare's tail (ERICA; Conyza canadensis),” for “rudis),”
as §2

[8] = test system: soybean (GLXMA; Glycine max, cv. Pioneer 35T58); assay: as above
Source text: as §1, with “(b15C2)” for “(b15C1)”, “faberi),” for “faberi), barnyardgrass (ECHCG; Echinochloa crus-galli), large crabgrass (DIGSA; Digitaria sanguinalis),”, “rudis), mare's tail (ERICA; Conyza canadensis),” for “rudis),”
as §2

[9] = test system: common ragweed (AMBEL; Ambrosia artemisiifolia); assay: as above
Source text: as §1, with “(b15C2)” for “(b15C1)”, “faberi),” for “faberi), barnyardgrass (ECHCG; Echinochloa crus-galli), large crabgrass (DIGSA; Digitaria sanguinalis),”, “rudis), mare's tail (ERICA; Conyza canadensis),” for “rudis),”
as §2

## Cc1ccc2ccc(C)c(-c3c(O)c(Cl)nn(C)c3=O)c2c1 [Cpd. No. 20, 6-chloro-4-(2,7-dimethyl-1-naphthalenyl)-5-hydroxy-2-methyl-3(2H)-pyridazinone]
[1]; Cpd. No. 20 16 g a.i./ha alone
  Plant response rating (0 to 100 scale): 73
[1]; Cpd. No. 20 31 g a.i./ha alone
  Plant response rating (0 to 100 scale): 70
[1]; Cpd. No. 20 62 g a.i./ha alone
  Plant response rating (0 to 100 scale): 78
[2]; 125 g a.i./ha
  SETFA plant response rating, 0 to 100 scale: 84
[2]; 250 g a.i./ha
  SETFA plant response rating, 0 to 100 scale: 88
[2]; 375 g a.i./ha
  SETFA plant response rating, 0 to 100 scale: 90
[2]; Cpd. No. 20 alone 125 g a.i./ha
  Plant response rating (0 to 100 scale) SETFA: 84
[2]; Cpd. No. 20 alone 250 g a.i./ha
  Plant response rating (0 to 100 scale) SETFA: 88
[2]; Cpd. No. 20 alone 375 g a.i./ha
  Plant response rating (0 to 100 scale) SETFA: 90
[3]; postemergence, 8 g a.i./ha
  ZEAMD plant response rating, 0 to 100 scale: 0
[3]; postemergence, 16 g a.i./ha
  ZEAMD plant response rating, 0 to 100 scale: 0
[3]; postemergence, 31 g a.i./ha
  ZEAMD plant response rating, 0 to 100 scale: 0
[3]; postemergence, 62 g a.i./ha
  ZEAMD plant response rating, 0 to 100 scale: 0
[3]; preemergence, 8 g a.i./ha
  ZEAMD plant response rating, 0 to 100 scale: 0
[3]; preemergence, 16 g a.i./ha
  ZEAMD plant response rating, 0 to 100 scale: 0
[3]; preemergence, 31 g a.i./ha
  ZEAMD plant response rating, 0 to 100 scale: 0
[3]; preemergence, 62 g a.i./ha
  ZEAMD plant response rating, 0 to 100 scale: 0
[4]; postemergence, 8 g a.i./ha
  AMATU plant response rating, 0 to 100 scale: 55
[4]; postemergence, 16 g a.i./ha
  AMATU plant response rating, 0 to 100 scale: 53
[4]; postemergence, 31 g a.i./ha
  AMATU plant response rating, 0 to 100 scale: 71
[4]; postemergence, 62 g a.i./ha
  AMATU plant response rating, 0 to 100 scale: 86
[4]; preemergence, 8 g a.i./ha
  AMATU plant response rating, 0 to 100 scale: 0
[4]; preemergence, 16 g a.i./ha
  AMATU plant response rating, 0 to 100 scale: 20
[4]; preemergence, 31 g a.i./ha
  AMATU plant response rating, 0 to 100 scale: 29
[4]; preemergence, 62 g a.i./ha
  AMATU plant response rating, 0 to 100 scale: 50
[5]; postemergence, 8 g a.i./ha
  SETFA plant response rating, 0 to 100 scale: 34
[5]; postemergence, 16 g a.i./ha
  SETFA plant response rating, 0 to 100 scale: 69
[5]; postemergence, 31 g a.i./ha
  SETFA plant response rating, 0 to 100 scale: 75
[5]; postemergence, 62 g a.i./ha
  SETFA plant response rating, 0 to 100 scale: 80
[5]; preemergence, 8 g a.i./ha
  SETFA plant response rating, 0 to 100 scale: 15
[5]; preemergence, 16 g a.i./ha
  SETFA plant response rating, 0 to 100 scale: 63
[5]; preemergence, 31 g a.i./ha
  SETFA plant response rating, 0 to 100 scale: 78
[5]; preemergence, 62 g a.i./ha
  SETFA plant response rating, 0 to 100 scale: 89
[6]; postemergence, 8 g a.i./ha
  ERICA plant response rating, 0 to 100 scale: 85
[6]; postemergence, 16 g a.i./ha
  ERICA plant response rating, 0 to 100 scale: 90
[6]; postemergence, 31 g a.i./ha
  ERICA plant response rating, 0 to 100 scale: 90
[6]; postemergence, 62 g a.i./ha
  ERICA plant response rating, 0 to 100 scale: 90
[6]; preemergence, 8 g a.i./ha
  ERICA plant response rating, 0 to 100 scale: 58
[6]; preemergence, 16 g a.i./ha
  ERICA plant response rating, 0 to 100 scale: 90
[6]; preemergence, 31 g a.i./ha
  ERICA plant response rating, 0 to 100 scale: 94
[6]; preemergence, 62 g a.i./ha
  ERICA plant response rating, 0 to 100 scale: 95
[7]; postemergence, 8 g a.i./ha
  AMAPA plant response rating, 0 to 100 scale: 18
[7]; postemergence, 16 g a.i./ha
  AMAPA plant response rating, 0 to 100 scale: 15
[7]; postemergence, 31 g a.i./ha
  AMAPA plant response rating, 0 to 100 scale: 33
[7]; postemergence, 62 g a.i./ha
  AMAPA plant response rating, 0 to 100 scale: 63
[7]; preemergence, 8 g a.i./ha
  AMAPA plant response rating, 0 to 100 scale: 20
[7]; preemergence, 16 g a.i./ha
  AMAPA plant response rating, 0 to 100 scale: 46
[7]; preemergence, 31 g a.i./ha
  AMAPA plant response rating, 0 to 100 scale: 48
[7]; preemergence, 62 g a.i./ha
  AMAPA plant response rating, 0 to 100 scale: 60
[8]; postemergence, 8 g a.i./ha
  GLXMA plant response rating, 0 to 100 scale: 3
[8]; postemergence, 16 g a.i./ha
  GLXMA plant response rating, 0 to 100 scale: 4
[8]; postemergence, 31 g a.i./ha
  GLXMA plant response rating, 0 to 100 scale: 9
[8]; postemergence, 62 g a.i./ha
  GLXMA plant response rating, 0 to 100 scale: 6
[8]; preemergence, 8 g a.i./ha
  GLXMA plant response rating, 0 to 100 scale: 0
[8]; preemergence, 16 g a.i./ha
  GLXMA plant response rating, 0 to 100 scale: 0
[8]; preemergence, 31 g a.i./ha
  GLXMA plant response rating, 0 to 100 scale: 0
[8]; preemergence, 62 g a.i./ha
  GLXMA plant response rating, 0 to 100 scale: 20
[9]; postemergence, 8 g a.i./ha
  AMBEL plant response rating, 0 to 100 scale: 86
[9]; postemergence, 16 g a.i./ha
  AMBEL plant response rating, 0 to 100 scale: 93
[9]; postemergence, 31 g a.i./ha
  AMBEL plant response rating, 0 to 100 scale: 91
[9]; postemergence, 62 g a.i./ha
  AMBEL plant response rating, 0 to 100 scale: 95
[9]; preemergence, 8 g a.i./ha
  AMBEL plant response rating, 0 to 100 scale: 0
[9]; preemergence, 16 g a.i./ha
  AMBEL plant response rating, 0 to 100 scale: 100
[9]; preemergence, 31 g a.i./ha
  AMBEL plant response rating, 0 to 100 scale: 86
[9]; preemergence, 62 g a.i./ha
  AMBEL plant response rating, 0 to 100 scale: 96
